These results are taken from patent publication US5294634A, “Osteogenesis promoter” (Zeria Pharmaceutical Co., Ltd., priority 1989, dated 1994).

Data set [1] relates to femoral diaphysis. The data set is described as follows: Calcium content in femoral diaphysis of young rats (Test Example 1, osteogenesis-stimulating action). The data set is classed as in vivo, young Wistar rats. As to conditions: oral, 5.5 mg/kg body weight in terms of zinc, once a day for 3 days; 24 h after last dose; average ± standard error; control 386.5 ± 6.5. How it is done:
(§1) The osteogenesis-stimulating action of the zinc complex of L-carnosine was confirmed by the calcium content, zinc content, alkaline phosphatase activity and DNA content in the femoral diaphysis of young rats used. Zinc sulfate was used as a comparative compound.
(§2) Young Wistar rats were used regarding five rats as one group. […] A control group was orally given with a solvent alone.
(§3) The agent to be tested was administered for 3 days once a day in an amount corresponding to 5.5 mg/kg body weight in terms of zinc. Upon elapsed time of 24 hours after the last dose, the rats were sacrificed and the femoral regions were taken out of each rat under light ether anesthesia. Soft tissues and bone marrow were removed from the femoral region. The diaphysis and epiphysis (including metaphyseal tissues) were separated from each other to form fragments of the femoral diaphysis.
The femoral diaphysis tissue was ashed for 24 hours at 640° C. to weigh the resulting ash. Thereafter, the ash was dissolved in 6N hydrochloric acid to measure its calcium content by atomic absorption spectrophotometry. The calcium content in the bone was expressed in terms of mg per g of the bone ash.
(§4) The data were shown as average value±standard error. The significant difference was determined using the Student's t-test.

In another data set the test system is alkaline phosphatase. The data set is described as follows: Alkaline phosphatase activity in femoral diaphysis of young rats (Test Example 1). It counts as in vivo, young Wistar rats. Particulars: oral, 5.5 mg/kg body weight in terms of zinc, once a day for 3 days; 24 h after last dose; average ± standard error; control 1599.6 ± 74.5. Here is the method: as §1, §2
The agent to be tested was administered for 3 days once a day in an amount corresponding to 5.5 mg/kg body weight in terms of zinc. Upon elapsed time of 24 hours after the last dose, the rats were sacrificed and the femoral regions were taken out of each rat under light ether anesthesia. […]
The femoral diaphysis tissue was immersed into 3 ml of ice-cold 6.5 mM barbital buffer solution (pH: 7.4) and then cut into pieces to uniformly grind them by a Potter-Blvehjem homogenizer equipped with a Teflon pestle. […] The alkaline phosphatase activity was determined in accordance with the Wallter-Schutt procedure [Bergmeyer HU (ed), Methods of enzymatic analysis, Vol. 1-2, Academic Press, New York, pp. 856-860 (1965)]. […] The concentration of protein was measured in accordance with the method by Lowry et al. [J. Biol. Chem., 193, 265-273 (1951)].
as §4

Data set [2] deals with femoral diaphysis. Nature of the data set: DNA content in femoral diaphysis of young rats (Test Example 1). It counts as in vivo, young Wistar rats. As to conditions: oral, 5.5 mg/kg body weight in terms of zinc; for change in DNA content in the femoral diaphysis: 3 days, in words; for DNA: once a day for 3 days, 24 h after last dose, average ± standard error, control 1.450 ± 0.020. Here is the method: as §1, §2, §3
A small fragment of the fempral diaphysis was subjected to homogenization for bone tissue, followed by its shaking together with 4.0 ml of 0.1N sodium hydroxide solution cooled with ice. After the thus-treated homogenate was subjected to alkali extraction, the extract was centrifuged at 10,000×g for 5 minutes. The thus-obtained supernatant liquid was used for the measurement in accordance with the Ceriotti method [J. Biol. Chem., 214, 39-77 (1955)]. The DNA content was expressed in terms of the total DNA content (mg) per gram of a wet bone.
as §4

For data set [3], the system named is femoral diaphysis. Nature of the data set: Zinc content in femoral diaphysis of young rats (Test Example 1). The data set is classed as in vivo, young Wistar rats. Particulars: oral, 5.5 mg/kg body weight in terms of zinc, once a day for 3 days; 24 h after last dose; average ± standard error; control 156.9 ± 7.7. How it is done: as §1, §2, §3
A fragment of the femoral diaphysis was digested with nitric acid [Biochem. Pharmacol., 36, 4007-4012 (1986)] to measure the content of zinc by atomic adsorption spectrophotometry. The zinc content was expressed in terms of micrograms of zinc per gram of a wet bone.
as §4

For data set [4], the system named is femoral diaphysis. The data set is described as follows: Osteogenesis-stimulating action (overall, Test Example 1). The data set is classed as in vivo, young Wistar rats. Particulars: for change in zinc content, calcium content and alkaline phosphatase activity in the femoral diaphysis: oral, 5.5 mg/kg body weight in terms of zinc, 3 days, in words. Here is the method:
as §1, §2, §3

A further data set deals with rats. Nature of the data set: Oral acute toxicity (Test Example 2). As to conditions: 10 g/kg body weight, observation for 7 days, male and female rats. It counts as in vivo, Wister male and female rats. The source says:
Using Wister male and female rats of 150-200 g by weight regarding 10 rats as respective groups, the crystalline zinc complex of L-carnosine in a dose of 10 g/kg body weight) was orally administered to each rat.

The conditions of data set [5]: in vivo; cited from earlier work.

For the molecule `NCCC(=O)[N-][C@@H](Cc1c[nH]cn1)C(=O)[O-].[Zn+2]` [L-carnosine zinc complex, Crystalline Zinc Complex of L-Carnosine], the Calcium content in the data set with femoral diaphysis [1] worked out at 458.1 ± 8.7 mg/g bone ash. The molecule further had an Alkaline phosphatase with alkaline phosphatase of 1963.4 ± 118.3 μmol/min/mg protein. Moreover, in the data set on femoral diaphysis [2], the “change in DNA content in the femoral diaphysis” value was “increased” and the DNA is 2.931 ± 0.100 mg/g wet bone. In addition, the Zinc with femoral diaphysis [3] amounted to 235.0 ± 9.1 μg/g wet bone. Besides, the “change in zinc content, calcium content and alkaline phosphatase activity in the femoral diaphysis” value in the data set on femoral diaphysis [4] is recorded as “increased”. Further, the “osteogenesis-stimulating action compared with zinc sulfate” value with femoral diaphysis [4] (same amounts (5.5 mg/kg body weight) in terms of zinc) is on record as “stronger osteogenesis-stimulating action than zinc sulfate”. For the same molecule, the dead cases entry in the data set on rats is recorded as “dead cases were not recognized”.

In the case of `O=S(=O)([O-])[O-].[Zn+2]` [Zinc sulfate, zinc sulfate, reference compound], the Calcium content in the data set on femoral diaphysis [1] is listed as 405.8 ± 4.5 mg/g bone ash. Also, the Alkaline phosphatase in the data set on alkaline phosphatase is 2580.5 ± 80.3 μmol/min/mg protein. For the same molecule, in the data set on femoral diaphysis [2], the “change in DNA content in the femoral diaphysis” value is reported as “a significant change was not produced” and the DNA is 1.510 ± 0.050 mg/g wet bone. Besides, in the data set with femoral diaphysis [3], the Zinc is listed as 206.7 ± 9.8 μg/g wet bone. Also, the “change in zinc content, calcium content and alkaline phosphatase activity in the femoral diaphysis” value in the data set with femoral diaphysis [4] was “increased”. Moreover, the side effects entry in data set [5] was “vomiting, nausea and diarrhea”.
